# According to US20240108722A1, “TUMOR-INFILTRATING LYMPHOCYTES WITH MEMBRANE BOUND INTERLEUKIN 15 AND USES THEREOF” (OBSIDIAN THERAPEUTICS, INC., priority 2021, published 2024):
# System: regulated mbIL15 TILs
# Assay: ACZ regulation of IL15 expression and signaling, phospho-flow cytometry-based assay
# Type: cell-based, human
# Conditions: 18 hours
# Procedure: Pre-REP TILs were prepared similarly to the methods of Example 1-3 and 9, and unengineered and mbIL15 TIL generated accordingly as described in Examples 1-3 and 9. Engagement of the IL15 signaling pathway results in phosphorylation of signal transducers downstream, including the transcription factor protein STAT5 and ribosomal protein S6. […] Next, the regulated mbIL15 TILs were regulated for 18 hours in the presence of a range of concentrations of ACZ including 0.1, 1, 2.5, 5, 10, 25, 100 as well as vehicle control. The regulated mbIL15 TILs were then collected for staining and FACS analysis.
# Briefly, cells were stained using antibodies for CD3, CD4, CD8, IL15 and a Live/Dead marker. Then cells were fixed in 2% formaldehyde (BD Cytofix) and permeabilized using a methanol-based buffer (BD Phospho Perm III Buffer) before staining with antibodies specific for phosphorylated STAT5 (Biolegend) and S6 (Cell Signaling Technology). Cells were acquired on the BD Symphony and analyzed using FlowJo software.
# With increasing concentrations of ACZ expression of mbIL15 also increases, plateauing at around 10-25 μM of ACZ. FIG. 9A. […] FIGS. 9B-E and FIG. 10.
structure (smiles),measurement,setting,value
"CC(=O)Nc1nnc(S(N)(=O)=O)s1 [ACZ, acetazolamide]",staining intensity of pSTAT5 and pS6,"0.1-100 μM ACZ, regulated mbIL15 TILs",increased with higher concentrations of ACZ
same,ACZ concentration at which mbIL15 expression plateaus,regulated mbIL15 TILs from four human donors,10 to 25 µM
